Where a name gives a salt, the structure may show the parent alone.
system: Acinetobacter baumannii ATCC17961; assay: Antimicrobial susceptibility testing: 90% growth inhibitory concentration (IC90) determination in Iso-Sensitest broth, OD600 growth; format: cell-based; conditions: Acinetobacter baumannii, ATCC17961, 16 h, read-out: A. baumannii ATCC 17961 IC90 (uM), strain ATCC 17961, OD600 growth over 16 h
Summary of the method: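 Each strain, at about 5×10^(5) CFU/ml, was incubated with twofold dilutions of compound at 35±2° C for 16 h, and IC90 was calculated from kinetic optical density measured at 600 nm during logarithmic growth.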

| Compound | IC90 |
| --- | --- |
| CCc1cc(Nc2nccn3c(-c4cn(CC#N)nc4C(F)(F)F)cnc23)ccc1C(=O)NCCNC(=O)[C@@H](C)N [Example 625, (R)-N-(2-(2-aminopropanamido)ethyl)-4-((3-(1-(cyanomethyl)-3-(trifluoromethyl)-1H-pyrazol-4-yl)imidazo[1,2-a]pyrazin-8-yl)amino)-2-ethylbenzamide formate] | 0.176 µM |
| CCc1cc(Nc2nccn3c(-c4cn(CC#N)nc4C(F)(F)F)cnc23)ccc1C(=O)NCCCNC(=O)[C@@H](C)N [Example 626, (R)-N-(3-(2-aminopropanamido)propyl)-4-((3-(1-(cyanomethyl)-3-(trifluoromethyl)-1H-pyrazol-4-yl)imidazo[1,2-a]pyrazin-8-yl)amino)-2-ethylbenzamide formate] | 0.233 µM |
| CCc1cc(Nc2nccn3c(-c4cn(CC(F)F)nc4C(F)(F)F)cnc23)ccc1C(=O)NCCCNC(=O)[C@H](C)N [Example 628, (S)-N-(3-(2-aminopropanamido)propyl)-4-((3-(1-(2,2-difluoroethyl)-3-(trifluoromethyl)-1H-pyrazol-4-yl)imidazo[1,2-a]pyrazin-8-yl)amino)-2-ethylbenzamide formate] | 0.195 µM |
| CCc1cc(Nc2nccn3c(-c4cn(CC(F)F)nc4C(F)(F)F)cnc23)ccc1C(=O)NCCCNC(=O)CCN [Example 630, N-(3-(3-aminopropanamido)propyl)-4-((3-(1-(2,2-difluoroethyl)-3-(trifluoromethyl)-1H-pyrazol-4-yl)imidazo[1,2-a]pyrazin-8-yl)amino)-2-ethylbenzamide formate] | 0.206 µM |
| CCc1cc(Nc2nccn3c(-c4cn(CC(F)F)nc4C(F)(F)F)cnc23)ccc1C(=O)NCCCNC(=O)[C@@H](C)N [Example 633, (R)-N-(3-(2-aminopropanamido)propyl)-4-((3-(1-(2,2-difluoroethyl)-3-(trifluoromethyl)-1H-pyrazol-4-yl)imidazo[1,2-a]pyrazin-8-yl)amino)-2-ethylbenzamide formate] | 0.214 µM |
| CCc1cc(Nc2nccn3c(-c4cn(C(C)C#N)nc4C(F)(F)F)cnc23)ccc1C(=O)NCCOCCCN (stereo not drawn) [Example 639, N-(2-(3-aminopropoxy)ethyl)-4-((3-(1-(1-cyanoethyl)-3-(trifluoromethyl)-1H-pyrazol-4-yl)imidazo[1,2-a]pyrazin-8-yl)amino)-2-ethylbenzamide formate] | 0.228 µM |
| CCc1cc(Nc2nccn3c(-c4cn(CC(F)F)nc4C(F)(F)F)cnc23)ccc1C(=O)NCC1CC1N (stereo not drawn) [Example 641, N-((2-aminocyclopropyl)methyl)-4-((3-(1-(2,2-difluoroethyl)-3-(trifluoromethyl)-1H-pyrazol-4-yl)imidazo[1,2-a]pyrazin-8-yl)amino)-2-ethylbenzamide formate] | 0.231 µM |

same assay, conditions: Acinetobacter baumannii, ATCC17961, 16 h, strain ATCC 17961, OD600 growth over 16 h, read-out: A. baumannii ATCC 17961 IC90

| IC90 | Compound |
| --- | --- |
| 0.19 µM | CCc1cc(Nc2nccn3c(-c4cn(CC(F)F)nc4C(F)(F)F)cnc23)ccc1C(=O)NCCNC(=O)[C@H]1C[C@@H](N)C1 [Example 624, cis-N-(2-((1s,3s)-3-aminocyclobutane-1-carboxamido)ethyl)-4-((3-(1-(2,2-difluoroethyl)-3-(trifluoromethyl)-1H-pyrazol-4-yl)imidazo[1,2-a]pyrazin-8-yl)amino)-2-ethylbenzamide formate] |
| 0.19 µM | CCc1cc(Nc2nccn3c(-c4cn(CC(F)F)nc4C(F)(F)F)cnc23)ccc1C(=O)NCCCNC(=O)[C@@H]1CCCN1 [Example 627, (S)-N-(3-(4-((3-(1-(2,2-difluoroethyl)-3-(trifluoromethyl)-1H-pyrazol-4-yl)imidazo[1,2-a]pyrazin-8-yl)amino)-2-ethylbenzamido)propyl) pyrrolidine-2-carboxamide] |
| 0.198 µM | C=CCn1cc(-c2cnc3c(Nc4cc(C)c(C(=O)N5CCN(C(=O)[C@H]6CC[C@H](O)N6)CC5)c(F)c4)nccn23)c(C(F)(F)F)n1 [Example 629, (4-(4-((3-(1-allyl-3-(trifluoromethyl)-1H-pyrazol-4-yl)imidazo[1,2-a]pyrazin-8-yl)amino)-2-fluoro-6-methylbenzoyl)piperazin-1-yl)((2R,5S)-5-hydroxypyrrolidin-2-yl)methanone] |
| 0.209 µM | CCc1cc(Nc2nccn3c(-c4c[nH]nc4C(F)(F)F)cnc23)ccc1C(=O)NCCCNC(=O)N1CC[C@@H](N)C1 [Example 631, (R)-3-amino-N-(3-(2-ethyl-4-((3-(3-(trifluoromethyl)-1H-pyrazol-4-yl)imidazo[1,2-a]pyrazin-8-yl)amino)benzamido)propyl) pyrrolidine-1-carboxamide] |
| 0.209 µM | CCc1cc(Nc2nccn3c(-c4cn(CC(F)F)nc4C(F)(F)F)cnc23)ccc1C(=O)NCCCNC(=O)N1CC[C@@H](N)C1 [Example 632, (R)-3-amino-N-(3-(4-((3-(1-(2,2-difluoroethyl)-3-(trifluoromethyl)-1H-pyrazol-4-yl)imidazo[1,2-a]pyrazin-8-yl)amino)-2-ethylbenzamido)propyl) pyrrolidine-1-carboxamide formate] |
| 0.218 µM | CCc1cc(Nc2nccn3c(-c4c[nH]nc4C(F)(F)F)cnc23)ccc1C(=O)NCCCNC(=O)[C@@H]1CCCN1 [Example 634, (S)-N-(3-(2-ethyl-4-((3-(3-(trifluoromethyl)-1H-pyrazol-4-yl)imidazo[1,2-a]pyrazin-8-yl)amino)benzamido)propyl) pyrrolidine-2-carboxamide] |
| 0.22 µM | O=C(c1ccc(Nc2nccn3c(-c4cn(CC(F)F)nc4C(F)(F)F)cnc23)cc1Cl)N1CC2(C1)CN(C(=O)[C@@H]1CCCN1)C2 [Example 635, (S)-(2-chloro-4-((3-(1-(2,2-difluoroethyl)-3-(trifluoromethyl)-1H-pyrazol-4-yl)imidazo[1,2-a]pyrazin-8-yl)amino)phenyl)(6-prolyl-2,6-diazaspiro [3.3]heptan-2-yl)methanone] |
| 0.222 µM | N#CCn1cc(-c2cnc3c(Nc4ccc(C(=O)N5CC6(C5)CN(C(=O)[C@@H]5CCCN5)C6)c(Cl)c4)nccn23)c(C(F)(F)F)n1 [Example 636, (S)-2-(4-(8-((3-chloro-4-(6-prolyl-2,6-diazaspiro[3.3]heptane-2-carbonyl)phenyl)amino)imidazo[1,2-a]pyrazin-3-yl)-3-(trifluoromethyl)-1H-pyrazol-1-yl)acetonitrile] |
| 0.226 µM | CCc1cc(Nc2nccn3c(-c4cn(CC#N)nc4C(F)(F)F)cnc23)ccc1C(=O)NCCNC(=O)[C@@H]1C[C@@H](O)CN1 [Example 637, (2S,4R)-N-(2-(4-((3-(1-(cyanomethyl)-3-(trifluoromethyl)-1H-pyrazol-4-yl)imidazo[1,2-a]pyrazin-8-yl)amino)-2-ethylbenzamido)ethyl)-4-hydroxypyrrolidine-2-carboxamide] |
| 0.226 µM | CCc1cc(Nc2nccn3c(-c4cn(CC(F)F)nc4C(F)(F)F)cnc23)ccc1C(=O)NCC(=O)N[C@H]1CCNC1 [Example 638, 4-[[3-[1-(2,2-difluoroethyl)-3-(trifluoromethyl)pyrazol-4-yl]imidazo[1,2-a]pyrazin-8-yl]amino]-2-ethyl-N-[2-oxo-2-[[(3S)-pyrrolidin-3-yl]amino]ethyl] benzamide formate] |
| 0.229 µM | CCc1cc(Nc2nccn3c(-c4cn(CCF)nc4C(F)(F)F)cnc23)ccc1C(=O)NCC1CC1N (stereo not drawn) [Example 640, N-((2-aminocyclopropyl)methyl)-2-ethyl-4-((3-(1-(2-fluoroethyl)-3-(trifluoromethyl)-1H-pyrazol-4-yl)imidazo[1,2-a]pyrazin-8-yl)amino) benzamide formate] |
